Measurements reported in the supplement of paper PMC10307832.

Legend:
Assay in all cases: relative viability (nuclei count vs DMSO), 5 days (fraction); higher = more cells survive
[1] = compound: CCOC(=O)CCNc1cc(N2CCc3ccccc3CC2)nc(-c2ccccn2)n1 [GSK-J4] + O=C(CCCCCCC(=O)Nc1ccccc1)NO [Vorinostat] (partner 1 µM)
How it was run: (§1)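 Each reported value is a median over duplicate plates. It expresses relative viability: treated-well nuclei count divided by vehicle-well nuclei count. Lung cancer cell lines in 1536-well plates were dosed by pin tool a day after seeding, alone with one drug or with a fixed anchor-drug dose plus five library-drug doses (not always all listed) in √10 steps, and nuclei were counted after 5 days.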

[2] = compound: CN1CCC(CC1)OC2=CC(=C(C=C2)NC3=NC=C4C(=N3)N(C(=O)N4C)C5CCCC5)OC [AZ3146] + Cc1nc(Nc2ncc(C(=O)Nc3c(C)cccc3Cl)s2)cc(N2CCN(CCO)CC2)n1 [Dasatinib] (partner 0.075 µM)
How it was run: as §1

[3] = compound: CN1CCC(CC1)OC2=CC(=C(C=C2)NC3=NC=C4C(=N3)N(C(=O)N4C)C5CCCC5)OC [AZ3146] + Nc1ncn([C@H]2C[C@H](O)[C@@H](CO)O2)c(=O)n1 [Decitabine] (partner 2 µM)
How it was run: as §1

[4] = compound: CN1CCC(CC1)OC2=CC(=C(C=C2)NC3=NC=C4C(=N3)N(C(=O)N4C)C5CCCC5)OC [AZ3146] + O=C(CCCCCCC(=O)Nc1ccccc1)NO [Vorinostat] (partner 1 µM)
How it was run: as §1

| Cell Line | relative viability ([1]; first compound 0.5 µM) | relative viability ([1]; first compound 1.581 µM) | relative viability ([1]; first compound 5 µM) | relative viability ([1]; first compound 15.81 µM) | relative viability ([1]; first compound 50 µM) | relative viability ([2]; first compound 0.08 µM) | relative viability ([2]; first compound 0.253 µM) | relative viability ([2]; first compound 0.8 µM) | relative viability ([2]; first compound 2.53 µM) | relative viability ([2]; first compound 8 µM) | relative viability ([3]; first compound 0.08 µM) | relative viability ([3]; first compound 0.253 µM) | relative viability ([3]; first compound 0.8 µM) | relative viability ([3]; first compound 2.53 µM) | relative viability ([3]; first compound 8 µM) | relative viability ([4]; first compound 0.08 µM) | relative viability ([4]; first compound 0.253 µM) | relative viability ([4]; first compound 0.8 µM) | relative viability ([4]; first compound 2.53 µM) | relative viability ([4]; first compound 8 µM) |
| --- | --- | --- | --- | --- | --- | --- | --- | --- | --- | --- | --- | --- | --- | --- | --- | --- | --- | --- | --- | --- |
| NCI-H2085 | 0.767 | 0.731 | 0.697 | 0.634 | 0.728 | 0.256 | 0.231 | 0.266 | 0.257 | 0.208 | 0.525 | 0.53 | 0.581 | 0.598 | 0.611 | 0.75 | 0.786 | 0.779 | 0.789 | 0.701 |
| HCC-366 | 0.284 | 0.287 | – | 0.285 | 0.34 | 0.483 | 0.57 | 0.56 | 0.588 | 0.572 | 0.342 | 0.39 | 0.296 | 0.352 | 0.321 | 0.192 | 0.408 | 0.352 | 0.278 | 0.14 |
| HCC-827 | 0.873 | 0.731 | 0.782 | 0.774 | 0.787 | 0.381 | 0.345 | 0.409 | 0.333 | 0.218 | 0.308 | 0.364 | 0.31 | 0.3 | 0.347 | 0.774 | 0.916 | 0.641 | 0.844 | 0.892 |
| HOP-62 | 0.48 | 0.355 | 0.585 | 0.507 | 0.35 | 0.603 | 0.618 | 0.609 | 0.646 | 0.656 | 0.22 | 0.195 | 0.207 | 0.248 | 0.203 | 0.337 | 0.664 | 0.598 | 0.699 | 0.385 |
| NCI-H1437 | 0.827 | 0.608 | 0.715 | 0.706 | 0.305 | 0.327 | 0.373 | 0.447 | 0.368 | 0.51 | 0.536 | 0.533 | 0.598 | 0.531 | 0.481 | 0.774 | 0.771 | 0.842 | 0.839 | 0.538 |
| PC-14 | 0.721 | 0.66 | 0.565 | 0.63 | 0.509 | 0.271 | 0.268 | 0.259 | 0.229 | 0.0367 | 0.208 | 0.2 | 0.249 | 0.15 | 0.0833 | 0.538 | 0.745 | 0.546 | 0.359 | 0.0815 |
| LOU-NH91 | 1.02 | 0.868 | 0.668 | 0.841 | 0.902 | 0.581 | 0.485 | 0.632 | 0.602 | 0.566 | 0.816 | 0.77 | 0.886 | 0.829 | 0.783 | 0.866 | 0.837 | 0.968 | 1 | 0.832 |
| EMC-BAC-2 | 0.494 | 0.497 | – | 0.364 | 0.457 | 0.273 | 0.366 | 0.38 | 0.372 | 0.354 | – | – | 1.09 | 1.02 | 0.907 | – | – | 0.519 | 0.534 | 0.368 |
| NCI-H1355 | 0.654 | 0.588 | 0.51 | 0.478 | 0.469 | 0.654 | 0.644 | 0.767 | 0.68 | 0.726 | 0.336 | 0.32 | 0.362 | 0.423 | 0.361 | 0.517 | 0.619 | 0.69 | 0.712 | 0.622 |
| ABC-1 | 1.2 | 1.31 | 0.879 | 0.704 | 0.555 | 0.493 | 0.56 | 0.562 | 0.713 | 0.421 | 1.02 | 1.04 | 1.33 | 1.05 | 1.09 | 0.618 | 1.02 | 1.53 | 1.2 | 1.16 |
| NCI-H727 | 1.13 | 0.991 | 1.45 | 1.03 | 0.758 | 0.418 | 0.378 | 0.324 | 0.362 | 0.384 | 0.806 | 0.913 | 0.714 | 0.766 | 0.783 | 1.01 | 1.22 | 1.03 | 1.17 | 1.11 |
| NCI-H1666 | 0.956 | 0.931 | 0.97 | 1.01 | 0.737 | 0.799 | 0.818 | 0.74 | 0.764 | 0.596 | 0.666 | 0.706 | 0.679 | 0.673 | 0.711 | 0.976 | 1.09 | 1.01 | 1.09 | 0.994 |
| NCI-H2126 | 0.762 | 0.659 | 0.872 | 0.572 | 0.567 | 0.575 | 0.629 | 0.56 | 0.628 | 0.523 | 0.626 | 0.604 | 0.569 | 0.597 | 0.572 | 0.504 | 0.743 | 0.709 | 0.835 | 0.66 |
| NCI-H1793 | 0.942 | 0.586 | 0.663 | 0.358 | 0.284 | 0.303 | 0.412 | 0.404 | 0.348 | 0.423 | 0.252 | 0.523 | 0.456 | 0.283 | 0.488 | 0.616 | 0.682 | 0.613 | 0.942 | 0.573 |
| LCLC-97TM1 | 0.684 | 0.442 | 0.681 | 0.507 | 0.578 | 0.669 | 0.755 | 0.762 | 0.785 | 0.812 | 0.209 | 0.254 | 0.225 | 0.222 | 0.248 | 0.356 | 0.761 | 0.631 | 0.635 | 0.653 |
| COR-L23 | 0.474 | 0.442 | – | 0.413 | 0.361 | 0.425 | 0.527 | 0.509 | 0.457 | 0.313 | 0.377 | 0.461 | 0.418 | 0.467 | 0.369 | 0.38 | 0.536 | 0.374 | 0.415 | 0.313 |
